Laboratory results reported in patent US20240238218A1, “[…] A […] ACTIVE COMPOUND AND METHOD OF PREPARATION THEREOF” (GW Research Limited, priority 2021, published 2024).

What was measured:
RjOrl: Swiss mice = assay: Mouse 6 Hz (44 mA) psychomotor seizure test; type: in vivo; conditions: for Forelimb clonus (mean ± s.e.m.): score 0-2
Description: The 6 Hz Psychomotor Test, which detects anticonvulsant activity, follows that described by Brown et al. (J. Pharmacol. Exp. Ther. 107, 273-283, 1953).
Male RjOrl: Swiss mice, 5 weeks old, weighing 28-38 g at the beginning of the experiment. Animals were acclimatized to the test facility for at least 5 days after delivery and randomly housed in groups of 3-4 in macrolon cages on wood litter with free access to food and water.
Before transcorneal stimulation, a drop of tetracaine solution (2%) was applied on each eye of the mouse for local anesthesia. Between 1-10 minutes later, at the pre-treatment time specified for the test compound, the mice were administered a rectangular current (44 mA, rectangular pulse: 0.2 ms pulse width, 3 s duration, 6 Hz) via corneal electrodes connected to a constant current shock generator.
The number of seizures as reflected by forelimb clonus were recorded immediately after current administration. Forelimb clonus was scored as absent (0=no forelimb clonus), mild (1=clonus with one forelimb) and strong (2=clonus with both forelimbs).
[…] The experimenters were blinded to the treatment. The cages were randomly assigned to a treatment code, each designating one treatment group.
Compound I was administered intraperitoneally at 20 and 50 mg/kg, 30 minutes before the test, and at 100 and 200 mg/kg, 60 minutes before the test and were compared with the vehicle control (5% ethanol, 10% […], 85% physiological saline).
Valproate (300 mg/kg i.p.), administered 30 minutes before the test, was used as reference substance and was compared with the vehicle control (5% ethanol, 10% Kolliphor HS15, 85% physiological saline).
Test compound: Compound I dissolved in 5% ethanol, 10% Kolliphor HS15, 85% physiological saline.
Vehicle control: 5% ethanol, 10% Kolliphor HS15, 85% physiological saline.
Reference: Valproate (300 mg/kg), dissolved in 5% ethanol, 10% Kolliphor HS15, 85% physiological saline.
Data were assumed to be non-normally distributed based on validation data, therefore non-parametric tests were utilized. Quantitative data (scores) with the test substance were analyzed by comparing treated groups with the corresponding vehicle control using Kruskal-Wallis test with Dunn's multiple comparisons test when the Kruskal-Wallis Test was significant. Quantitative data with the reference substance was analysed using Mann-Whitney U test.

[1] = test system: mouse model of generalised seizure (tonic hind limb extensor convulsions); assay: mini-MEST (maximal electroshock seizure threshold, minimal sample sizes) test in the mouse; conditions: 50 mg/kg i.p., 30 min post dose
Experimental: The maximal electroshock seizure threshold (MEST) test is widely utilized preclinically to evaluate pro- or anti-convulsant properties of test compounds (Loscher et al., 1991).
In the MEST test the ability of a drug to alter the seizure threshold current required to induce hind limb tonic extensor convulsions is measured according to an “up and down” method of shock titration (Kimball et al., 1957). An increase in seizure threshold is indicative of anti-convulsant effect.
The ability of a test compound to alter the stimulus intensity, expressed as current (mA), required to induce the presence of tonic hind limb extensor convulsions, is assessed in the MEST.
All animals were weighed at the beginning of the study and randomly assigned to treatment groups based on a mean distribution of body weight across groups.
The first animal within a treatment group was given a shock at the expected or estimated CC50 current. For subsequent animals, the current was lowered or raised depending on the convulsions outcome from the preceding animal in log scale intervals.
Data generated from each treatment group were used to calculate the CC50±SEM values for the treatment group.
Vehicle: (5% ethanol, 10% solutol in 85% Saline) was prepared as follows: 1 mL of ethanol, 2 mL of solutol were warmed to 60° C., in 17 mL of saline (1:2:17).
The test compound, described herein as Compound I, is as shown as Formula I. Test compound was administered at 50 mg/kg (i.p.) in a 1:2:17 ethanol:solutol:0.9% saline formulation.
The data for each treatment group were recorded as the number of +'s and 0's at each current level employed and this information is then used to calculate the CC50 value (current required for 50% of the animals to show seizure behaviour)±standard error.
Test compound effects were also calculated as percentage change in CC50 from the vehicle control group.
Significant difference between drug-treated animals and controls were assessed according to Litchfield and Wilcoxon (1949).

[2] = 20 mg/kg i.p., 30 minutes before the test
[3] = 50 mg/kg i.p., 30 minutes before the test
[4] = 100 mg/kg i.p., 60 minutes before the test
[5] = 200 mg/kg i.p., 60 minutes before the test

Which “Forelimb clonus, Compared with Vehicle B (i.p.) %” value (“Forelimb clonus … (i.p.) %” below) (RjOrl: Swiss mice; [2]) does the source give for `C=C(C)[C@@H]1CC(O)C(C)=C[C@H]1c1c(O)cc(Br)cc1O` (single isomer, unassigned) [Compound I] here?
Its value is 0%.

And the “Forelimb clonus (mean ± s.e.m.)” value (RjOrl: Swiss mice; [2])?
Its value is 0.8 ± 0.1.

What about the “Forelimb clonus … (i.p.) %” value (RjOrl: Swiss mice; [3]) of the same compound?
The value was −38%.

And the “Forelimb clonus (mean ± s.e.m.)” value (RjOrl: Swiss mice; [3])?
The value was 0.5 ± 0.1.

And the “Slight sedation (mice affected)” value (RjOrl: Swiss mice; 100 mg/kg i.p.)?
Its value is “Two mice out of the 13”.

And the “Forelimb clonus … (i.p.) %” value (RjOrl: Swiss mice; [4])?
Its value is −88%.

What about the “Forelimb clonus (mean ± s.e.m.)” value (RjOrl: Swiss mice; [4]) of the same compound?
The value was 0.1 ± 0.1.

And the “Tremor (mice affected)” value (RjOrl: Swiss mice; 200 mg/kg i.p.)?
The value was “Two mice out of the 14”.

What about the “Sedation (mice affected)” value (RjOrl: Swiss mice; 200 mg/kg i.p., 14 mice) of the same compound?
Its value is “all mice showed slight (12 mice) to moderate (2 mice) sedation”.

And the “Forelimb clonus … (i.p.) %” value (RjOrl: Swiss mice; [5])?
The value was −63%.

What about the “Forelimb clonus (mean ± s.e.m.)” value (RjOrl: Swiss mice; [5]) of the same compound?
The value was 0.3 ± 0.1.

And the “CC50 +/− SEM” value [1]?
The value was over 114 mA.

What about the “tonic hindlimb convulsions in treatment group” value ([1]; 6 animals) of the same compound?
Its value is “did not have any convulsions”.
